From patent US8378117B2 (priority 2005, dated 2013)
pEC50, pIC50: −log10 of the molar value. Like-named read-outs stand apart in the source and are kept apart here.

Legend:
[1] = target: T1, CB1 receptor (Homo sapiens, UniProt P21554); experiment: Binding assay for CB1 agonists or inverse agonists (SK-N-MC membranes, [3H]-CP-55,940); conditions: for inhibition at 0.2 µM: read-out: CB1 receptor binding percent inhibition, test concentration 0.2 μM (footnote 2)
T1 construct: expressed in transfected cells
In short: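 Membranes from SK-N-MC cells stably expressing human CB1 incubated with compound and [3H]-CP-55,940 ([…]) for 90 min at 30° C in Tris-HCl pH 7.5, MgCl2, EDTA, fatty-acid-free BSA. Non-specific binding defined with 10 uM WIN 55,212; filtration, scintillation count; IC50 by linear regression.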

[2] = target: T2, CB2 receptor (Homo sapiens, UniProt P34972); experiment: Modified functional cell-based assay (Beta-Glo luminescence), CB2 receptor; conditions: CB2 EC50 (Receptor Functional Activity), one sample per compound, Cpd 237 n=3
T2 construct: expressed in transfected cells
Protocol: Additional functional activity studies were performed with minor modifications. Beta galactosidase activity was quantified using the luminescent Beta-Glo Assay System (Promega Corp. Madison, Wis.) and an Orion Microplate Luminometer (Berthold Detection Systems, Oak Ridge, Tenn.). The EC50 values were calculated using GraphPad Prism and a four parameter logistic equation.
The functional activity EC50 value for compounds tested (shown in Table 8) were obtained from studies in which varying compound concentrations were used. With the exception of Cpd 237 (n=3), one sample for each compound was tested.

[3] = target: T2, CB2 receptor; experiment: Modified binding assay, CB2 receptor in CHO cells, [3H]WIN 55212; conditions: [3H]WIN 55212 0.8 nM, 120 minutes at 37° C.
Protocol: Additional receptor binding studies were performed with minor modifications as detailed below.
The human CB1 and CB2 receptors were stably expressed in CHO cells as described in Rinaldi-Carmona, M., Calandra, B., Shire, D., Bouaboula, M., Oustric, D., Barth, F., Casellas, P., Ferrara, P. and Le Fur, G. (1996) J. PharmacoL Exp. Ther., 278: 871-878 and Munro, S., Thomas, K. L. and Abu-Shaar, M. (1993) Nature, 365: 61-65, respectively. [^3H]CP 55940 (0.5 nM) was used as the radioligand for the CB1 receptor binding assay. [^3H]WIN 55212 (0.8 nM) was used as the radioligand for the CB2 receptor binding assay. Incubation was carried out for 120 minutes at 37° C.
The specific ligand binding to the receptors is defined as the difference between the total binding and the nonspecific binding determined in the presence of an excess of unlabelled ligand. The results are expressed as a percent of control specific binding ((measured specific binding/control specific binding)×100) obtained in the presence of the test compounds.
The IC50 values (concentration causing a half-maximal inhibition of control specific binding) were determined by non-linear regression analysis of the competition curves generated with mean replicate values using Hill equation curve fitting (where Y=specific binding, D=minimum specific binding, A=maximum specific binding, C=compound concentration, C50=IC50 and nH=slope factor): (Y=D+[(A−D)/(1+(C/C50)^nH)] CB1 and CB2 Receptor Binding Results
For compounds tested, an IC50 binding value was obtained from percent inhibition studies in which various test concentrations were used.

[4] = target: T2, CB2 receptor; experiment: Functional cell-based assay, CB2 receptor mediated change in CRE β-gal expression (SK-N-MC cells); conditions: CB2 Receptor Functional Agonist EC50, forskolin induced β-galactosidase activity, SK-N-MC cells
In short: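 SK-N-MC cells stably co-transfected with human CB2 receptor and CRE β-gal reporter; β-galactosidase activity measured after forskolin stimulation. Compound-treated activity expressed as percent of vehicle control; EC50 from linear regression over varying compound concentrations.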

[5] = target: T1, CB1 receptor; experiment: cell-based; conditions: CB1 Receptor Functional Agonist EC50, SK-N-MC cells, forskolin induced β-galactosidase activity
In short: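 SK-N-MC cells stably co-expressing human CB1 and a CRE-β-galactosidase reporter; forskolin-induced β-gal activity measured after compound treatment, as % of vehicle-treated cells (100%). EC50 by linear regression from concentration series; otherwise % change at a single concentration.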

[6] = Cannabinoid CB1 Receptor Binding IC50, calculated by linear regression from percent inhibition at various test concentrations

T1 sequence (P21554 whole entry): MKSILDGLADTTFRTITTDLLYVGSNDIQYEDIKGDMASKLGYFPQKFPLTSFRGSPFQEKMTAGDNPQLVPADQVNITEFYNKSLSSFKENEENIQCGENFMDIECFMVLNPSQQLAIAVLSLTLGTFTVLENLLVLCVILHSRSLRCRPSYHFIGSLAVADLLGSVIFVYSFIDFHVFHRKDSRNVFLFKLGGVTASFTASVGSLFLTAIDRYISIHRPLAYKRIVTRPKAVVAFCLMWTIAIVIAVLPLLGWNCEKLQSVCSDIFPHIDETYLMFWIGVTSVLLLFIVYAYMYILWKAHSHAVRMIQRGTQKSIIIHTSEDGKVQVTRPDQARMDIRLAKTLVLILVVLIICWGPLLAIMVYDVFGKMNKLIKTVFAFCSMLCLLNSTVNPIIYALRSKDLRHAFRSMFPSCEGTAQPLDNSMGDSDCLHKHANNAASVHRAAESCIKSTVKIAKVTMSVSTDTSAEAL
T2 sequence (P34972 whole entry): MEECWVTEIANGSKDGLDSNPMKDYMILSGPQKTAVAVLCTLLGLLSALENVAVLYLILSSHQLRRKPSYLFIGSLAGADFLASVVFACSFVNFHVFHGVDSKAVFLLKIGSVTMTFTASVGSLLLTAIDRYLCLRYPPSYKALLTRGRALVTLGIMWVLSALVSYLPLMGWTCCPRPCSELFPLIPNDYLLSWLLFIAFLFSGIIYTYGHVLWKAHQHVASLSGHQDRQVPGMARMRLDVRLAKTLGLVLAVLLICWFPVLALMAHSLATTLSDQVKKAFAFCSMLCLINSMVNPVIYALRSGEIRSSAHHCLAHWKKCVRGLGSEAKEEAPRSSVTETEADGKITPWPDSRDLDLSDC

O=C(N[C@H](CO)c1ccccc1)c1n[nH]c2c1CCCCC2Cc1cccc(Cl)c1 (single isomer, unassigned) [Cpd 230, (8R*)-8-(3-chloro-benzyl)-1,4,5,6,7,8-hexahydro-cycloheptapyrazole-3-carboxylic acid [(1S)-2-hydroxy-1-phenyl-ethyl]-amide]
pIC50 [1, 6]: 6.52
pEC50 [2]: 7.96
pIC50 [3]: 7.04
pEC50 [4]: 8.70
pEC50 [5]: 6.00

O=C(N[C@H](CO)c1ccccc1)c1n[nH]c2c1CCCCC2Cc1cccc(Cl)c1 (single isomer, unassigned) [Cpd 231, (8S*)-8-(3-chloro-benzyl)-1,4,5,6,7,8-hexahydro-cycloheptapyrazole-3-carboxylic acid [(1S)-2-hydroxy-1-phenyl-ethyl]-amide]
pIC50 ([1]; read-out: Cannabinoid CB1 Receptor Binding IC50, calculated by linear regression from percent inhibition at various test concentrations): 6.52
pEC50 [2]: 7.09
pIC50 [3]: 5.74
pEC50 [4]: 7.92
pEC50 [5]: < 5.30

C[C@H](NS(=O)(=O)/C=C/c1n[nH]c2c1CCCCC2Cc1cccc(F)c1)c1ccccc1 (single isomer, unassigned) [Cpd 232, (2E)-2-[(8R*)-8-(3-fluoro-benzyl)-1,4,5,6,7,8-hexahydro-cycloheptapyrazol-3-yl]-ethenesulfonic acid [(1S)-1-phenyl-ethyl]-amide]
pIC50 [1, 6]: 6.52
inhibition at 0.2 µM [1]: 0%
pEC50 [2]: 6.82
pEC50 [4]: 8.05
pEC50 [5]: < 5.30

C[C@H](NS(=O)(=O)/C=C/c1n[nH]c2c1CCCC/C2=C\c1ccc(Cl)cc1)c1ccccc1 [Cpd 237, (2E,8E)-2-[8-(4-chloro-benzylidene)-1,4,5,6,7,8-hexahydro-cycloheptapyrazol-3-yl]-ethenesulfonic acid [(1S)-1-phenyl-ethyl]-amide]
pIC50 [1, 6]: 6.52
inhibition at 0.2 µM [1]: 0%
pEC50 [2]: 5.49
pIC50 [3]: 6.16
pEC50 [4]: 8.05
pEC50 [5]: 5.77
